Read-outs that look alike come from different tables or passages of the source.
Columns and labels:
[1] = Weight loss on heating (solid-state characterization); format: physicochemical; details: up to 150 °C; crystalline anhydrous form
Protocol: (§1) Compound 1 is a crystalline anhydrous solid form as represented by its PXRD pattern (FIG. 1). […] Compound 1 has a melting onset of ~227 °C and is non-hygroscopic, i.e., less than 0.2% moisture uptake at 90% RH/25 °C.

[2] = Moisture uptake / hygroscopicity (solid-state characterization); format: physicochemical; details: 90% RH/25 °C; crystalline anhydrous form
Protocol: as §1

[3] = Study to assess the bioequivalence of Compound 1 and varenicline tartrate (oral plasma concentrations); format: in vivo, monkey (non-human primates); details: monkey, capsule, 0.04 mg eq/kg
Protocol: FIG. 3 is a graph of the mean monkey plasma concentrations of varenicline following an oral dose of 0.04 mg eq/kg of prodrug (Compound 1) and varenicline tartrate.
A prodrug of varenicline (Compound 1) prepared as described above in Example 1 was orally dosed in capsule form to non-human primates to assess bioequivalence to varenicline tartrate API (Chantix). FIG. 3 is a graph of the mean monkey plasma concentrations of varenicline following an oral dose of 0.04 mg eq/kg of prodrug (Compound 1) and 0.04 mg eq/kg of varenicline tartrate.

[4] = Nitrosamine formation under nitrosating conditions in solution (UPLC-MS); format: physicochemical; details: for 10 min. N—NO Level: area % by UV; for 2 h N—NO Level / 42 h N—NO Level: area % by UV (210 nm)
Protocol: A study was conducted to determine whether varenicline prodrug (Compound 1) forms nitrosamine under nitrosating conditions in solution as compared to varenicline. Regular UPLC-MS detection was utilized. Varenicline free base (0.1 mmol), varenicline tartrate salt (0.1 mmol), and Compound 1 (0.1 mmol) were added to separate vials. THF (2.2 ml) was added to each vial. NaNO2 (0.1 eq) and AcOH (0.1 eq) (added as a 0.1 wt % NaNO2 solution with equivalent molar of acetic acid was also added to each vial to provide a total volume of ~2.5 ml/vial.

[5] = tested on: chronic cigarette smokers; details: total dose of 1 mg per day or 2 mg per day; six weeks; initial evidence; cited from earlier work
[6] = tested on: chronic cigarette smokers; details: Study 2, cited from earlier work; for co-confirmed continuous abstinence during weeks 9 through 12: placebo 12%; for continuously abstinent from one week after TQD through the end of treatment: placebo 8%
[7] = tested on: chronic cigarette smokers; details: Study 3, patient-directed 0.5 mg QD to 1 mg BID, cited from earlier work
[8] = tested on: chronic cigarette smokers; details: Study 4, cited from earlier work
[9] = tested on: chronic cigarette smokers; details: Study 5, cited from earlier work
[10] = nitrosating conditions: NaNO2 0.1 eq, AcOH 0.1 eq, THF, 10 min
[11] = nitrosating conditions: NaNO2 0.1 eq, AcOH 0.1 eq, THF
[12] = varenicline 1 mg BID compared to bupropion SR or placebo

Cc1ncc2c(c1O)[C@H](N1C[C@H]3C[C@@H](C1)c1cc4nccnc4cc13)OC2 [Compound 1, (R)-6-methyl-1-((6R,10S)-6,7,9,10-tetrahydro-8H-6,10-methanoazepino[4,5-g]quinoxalin-8-yl)-1,3-dihydrofuro[3,4-c]pyridin-7-ol]
weight loss [1]: less than 0.1%
hygroscopicity (in words) [2]: non-hygroscopic
moisture uptake [2]: less than 0.2%
prodrug remaining in the systemic circulation ([3]; analyte prodrug): no prodrug remaining in the systemic circulation
bioequivalence (plasma concentration over time) of the varenicline released from the prodrug ([3]; analyte varenicline, vs varenicline tartrate 0.04 mg eq/kg): comparable to varenicline tartrate
nitrosamine formation under nitrosating conditions (in words) ([4]; as compared to varenicline tartrate): does not form nitrosamines
10 min. N—NO Level [4, 10]: Not detected
2 h N—NO Level [4, 11]: Not detected.
42 h N—NO Level [4, 11]: Not detected

Cl.c1cnc2cc3c(cc2n1)C1CNCC3C1 [Varenicline Free base, 5,8,14-triazatetracyclo [10.3.1.0^2,11.0^4,9]hexadeca-2(11),3,5,7,9-pentaene]
10 min. N—NO Level [4, 10]: Not detected
2 h N—NO Level [4, 11]: Not detected
42 h N—NO Level [4, 11]: Not detected

O=C(O)C(O)C(O)C(=O)O.c1cnc2cc3c(cc2n1)[C@@H]1CNC[C@H]3C1 [Varenicline tartrate]
10 min. N—NO Level (by MS) ([4]; nitrosating conditions: NaNO2 0.1 eq, AcOH 0.1 eq, THF, 10 min, MS detection): Detectable by MS
10 min. N—NO Level [4, 10]: Not detected by UV
2 h N—NO Level [4, 11]: 0.83 A %
42 h N—NO Level [4, 11]: 5.15 A %

Cl.c1cnc2cc3c(cc2n1)C1CNCC3C1 [varenicline, 5,8,14-triazatetracyclo[10.3.1.0^2,11.0^4,9]hexadeca-2(11),3,5,7,9-pentaene]
effectiveness as an aid to smoking cessation (in words) [5]: effective as an aid to smoking cessation
co-confirmed continuous abstinence during weeks 9 through 12 ([6]; 1 mg per day (0.5 mg BID)): Forty five
continuously abstinent from one week after TQD through the end of treatment ([6]; 1 mg per day): 31%
co-confirmed continuous abstinence during weeks 9 through 12 ([6]; 2 mg per day (1 mg BID)): 51%
continuously abstinent from one week after TQD through the end of treatment ([6]; 2 mg per day): 31%
continuously abstinent from one week after TQD through the end of treatment ([7]; placebo 9%): 29%
co-confirmed continuous abstinence during weeks 9 through 12 ([7]; placebo 12%): 40%
rate of co-confirmed abstinence during weeks 9 through 12, comparison in words [8, 12]: superior
continuously abstinent from one week after TQD through the end of treatment ([8]; varenicline 1 mg BID, placebo 12%): 29%
co-confirmed abstinence during weeks 9 through 12 ([8]; varenicline 1 mg BID, placebo 17%): 44%
rate of co-confirmed abstinence during weeks 9 through 12, comparison in words [9, 12]: superior
continuously abstinent from one week after TQD through the end of treatment ([9]; varenicline 1 mg BID, placebo 11%): 29%
co-confirmed abstinence during weeks 9 through 12 ([9]; varenicline 1 mg BID, placebo 18%): 44%

From patent US20260356854A1, “Prodrugs of Varenicline and Compounds Containing Vulnerable Amines” (Pfizer Inc., priority 2022, published 2026)
